How the values were obtained:
db/db mice = test: Impaired glucose tolerance improving activity in type 2 diabetes model mouse; type: in vivo; settings: oral once a day, Example 23 10 mg/kg, Example 21 30 mg/kg, telmisartan 30 mg/kg
Method: By using 7-week old db/db mice, the body weight and the plasma glucose concentration of each mouse were measured before administration of the medicine, and group separation was performed by blocking assignment so that there was no variation of these values between respective groups. Solvent control (0.5% MC), 5 mg/kg rosiglitazone, 30 mg/kg telmisartan, 10 mg/kg of the compound of Example 23, and 30 mg/kg of the compound of Example 21 were orally administered iteratively for 4 weeks, once a day. Blood collecting was performed from the orbital vein plexus, and the plasma glucose concentration was measured at 2 weeks after the initiation of the administration. Furthermore, oral glucose tolerance test was performed at 4 weeks after the initiation of the administration. Specifically, the mouse was fasted for 24 hours from the night before the glucose tolerance test, and then a glucose solution was orally administered at a dose of 2 g/kg. The blood was collected from the tail vein of the mouse at 15, 30, 60, and 120 minutes after the administration of the glucose solution, and the concentration of the plasma glucose was measured. The area surrounded with the measured plasma glucose concentration and the time was taken as the area under the curve (AUC), and AUC for 120 minutes after administration of the glucose solution was estimated from the trapezoidal method.
Vehicle, Rosiglitazone, Telmisartan, Compound 23, and Compound 21 in FIGS. 2 and 3 represent solvent control, rosiglitazone, telmisartan, the compound of Example 23, and the compound of Example 21, respectively. The vertical axis of FIG. 2 represents the plasma glucose concentration. The data in FIG. 2 represents individual values and average values of each individual. The vertical axis of FIG. 3 represents the area under the curve surrounded with the plasma glucose concentration and the time (for 120 minutes after administration of the glucose solution). The data in FIG. 3 represents individual values and average values of each individual. […] Such activities were not confirmed for the telmisartan administration group.

human PPARγ2 = target: T1, human PPARγ2 (Homo sapiens, UniProt P37231); test: PPARγ activation activity, Gal4-PPARγ2 LBD luciferase transfection assay using COS7 cells; type: cell-based; settings: Gal4-human PPARγ2 LBD chimera, 16 hours, rosiglitazone = 100%
T1 construct: the amino acids 182 to 505 of human PPARγ2; expressed in transfected cells; host or cells: COS7 cells (African green monkey kidney)
T1 sequence (P37231 182-505): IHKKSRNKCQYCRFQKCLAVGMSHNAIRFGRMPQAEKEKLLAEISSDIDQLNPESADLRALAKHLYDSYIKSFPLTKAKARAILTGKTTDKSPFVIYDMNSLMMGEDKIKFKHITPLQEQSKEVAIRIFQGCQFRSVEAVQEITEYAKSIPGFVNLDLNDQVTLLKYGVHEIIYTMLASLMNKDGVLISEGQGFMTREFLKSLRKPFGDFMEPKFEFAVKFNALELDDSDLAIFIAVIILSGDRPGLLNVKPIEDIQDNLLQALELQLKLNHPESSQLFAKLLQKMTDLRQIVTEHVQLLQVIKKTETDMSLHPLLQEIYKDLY
Method: The agonistic activity of the compounds of the invention on PPARγ was measured based on the transfection assay using COS7 cells (DS Pharma Biomedical Co., Ltd., Osaka, Japan), which are the cell line derived from the kidney of the African green monkey. COS7 cells were cultured under 5% CO2 concentration, and DMEM medium containing 10% fetal bovine serum, glutamic acid, and antibiotics was used as a medium.
As an expression vector, a chimera in which DNA binding domain of Gal4, which is a yeast transcription factor, and ligand binding domain of human PPARγ2 are fused, i.e., a fused product between the amino acids 1 to 147 of Gal4 transcription factor and the amino acids 182 to 505 of human PPARγ2, was used. Furthermore, as a reporter vector, a firefly luciferase containing five copies of Gal4 recognition sequence in the promoter region was used. Plasmid transfection to the cells was performed according to a method which uses jetPEI (trade name, manufactured by Funakoshi Co., Ltd., Tokyo, Japan). Furthermore, β-galactosidase expression vector was employed as an internal standard.
After the transfection of the cells, the medium was replaced with a DMEM medium (containing 1% serum) added with the test compound, and the cells were further cultured for 16 hours. After that, the luciferase activity and β-galactosidase activity in the cell lysis solution were measured.
For the present test, dimethyl sulfoxide (DMSO) was used for dissolution and dilution of the test compounds, and during the cell treatment, the DMSO concentration in DMEM medium (containing 1% serum) was adjusted to 0.1%. As a positive compound, rosiglitazone (trade name, manufactured by ALEXIS Corporation, Switzerland) was used. The luciferase activity (%) of the test compounds (1 to 30 μmol/L) was calculated when the luciferase activity of rosiglitazone (3 to 10 μmol/L) is 100% and the luciferase activity in the absence of the test compound is 0%. The 50% effective concentration of the test compound (EC50, 50% effect concentration) was calculated by using SAS Preclinical Package Ver 5.0 (trade name, manufactured by SAS institute Japan Co., Tokyo, Japan), which is a statistical analysis program.
EC50 values of these compounds are described in Table 2. […] Under the same condition, the PPARγ activation activity of telmisartan, i.e., EC50, was 1 to 5 μM.

[1] = tested on: Zucker diabetic fatty (ZDF) rats; test: Activity for diabetic nephropathy in Zucker diabetic fatty rats; type: in vivo, rat; settings: 3 mg/kg once a day for 15 weeks, FIG. 5
Method: By using 8-week old Zucker diabetic fatty (ZDF) rats, the body weight, the elimination amount of urinary total protein (UTP), the plasma triglyceride concentration (TG), and the plasma total cholesterol concentration (TC) of each rat were measured before administration of the medicine, and group separation was performed by blocking assignment so that there was no variation of these values between respective groups. Solvent control (0.5% MC), 3 mg/kg telmisartan, 3 mg/kg of the compound of Example 21, and 3 mg/kg of the compound of Example 23 were administered iteratively for 15 weeks once a day. UTP, TG, and TC were measured according to a general method during the administration period at 4, 8, 12, and 15 weeks after the administration.
Vehicle, Telmisartan, Compound 23, and Compound 21 in FIGS. 4, 5, and 6 represent solvent control, telmisartan, the compound of Example 23, and the compound of Example 21, respectively. The horizontal axis of FIG. 4-1 represents time (weeks after administration), and the vertical axis represents the elimination amount of urinary total protein per 18 hours. The data in FIG. 4-1 represents average values of each individual in each point, wherein -●- represents Vehicle (solvent control), -♦- represents Telmisartan, -▪- represents Compound 23 (the compound of Example 23), and -▴- represents Compound 21 (the compound of Example 21). The vertical axis of FIG. 4-2 represents the elimination amount of urinary total protein per 18 hours. The data in FIG. 4-2 represents individual values and average values of each individual +standard deviation.
The vertical axis of FIG. 5 represents the plasma triglyceride concentration. The data in FIG. 5 represents individual values and average values of each individual.
The vertical axis of FIG. 6 represents the plasma total cholesterol concentration. The data in FIG. 6 represents individual values and average values of each individual.
Furthermore, it was believed that one reason for the potent activity may be related to improving activity of lipid metabolism, and it is believed that the potent activity is attributed to activities other than the angiotensin receptor antagonistic activity.

## CCCc1nc2c(C)cc(-c3nc4ccccc4n3C)cc2n1Cc1ccc(-c2ccccc2C(=O)O)cc1 [telmisartan, reference compound]
db/db mice; 2 weeks after initiation, FIG. 2
  plasma glucose concentration: not confirmed
db/db mice; 4 weeks, glucose 2 g/kg, FIG. 3
  AUC of plasma glucose in the glucose tolerance test (120 minutes after glucose solution): not confirmed
Human PPARγ2
  EC50: 1000 to 5000 nM
[1]
  plasma triglyceride concentration: such activity was not found

Reference: patent publication US8778954B2, “Phenylpyridine derivative and medicinal agent comprising same” (Kowa Company, Ltd., priority 2009, dated 2014)
